SMILES strings stand for the structures.

The target in this test is Pol theta (1-899) (Homo sapiens (Human), UniProt O75417). The test is described as follows: Pol theta ATPase activity, NADH oxidation-coupled enzymatic assay. The test is classed as biochemical. The settings on record: Pol theta (1-899) 10 nM, ATP, dT50 ssDNA, absorbance 340 nm, 10-point dilution series; read-out: ATPase NADH coupling:Standard Screening:hPolQ IC50. A digest of the protocol: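 Pol theta (1-899), 10 nM, preincubated 15 min at RT with 10-point compound series in Tris pH 7.80/KCl/MgCl2 buffer, then given 100 μM ATP plus 300 nM dT50 ssDNA with PK/LDH-coupled NADH oxidation. A340 followed for 30 min; rate slopes fitted with a four-parameter model for IC50.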
Chain of Pol theta (1-899) (O75417 1-899): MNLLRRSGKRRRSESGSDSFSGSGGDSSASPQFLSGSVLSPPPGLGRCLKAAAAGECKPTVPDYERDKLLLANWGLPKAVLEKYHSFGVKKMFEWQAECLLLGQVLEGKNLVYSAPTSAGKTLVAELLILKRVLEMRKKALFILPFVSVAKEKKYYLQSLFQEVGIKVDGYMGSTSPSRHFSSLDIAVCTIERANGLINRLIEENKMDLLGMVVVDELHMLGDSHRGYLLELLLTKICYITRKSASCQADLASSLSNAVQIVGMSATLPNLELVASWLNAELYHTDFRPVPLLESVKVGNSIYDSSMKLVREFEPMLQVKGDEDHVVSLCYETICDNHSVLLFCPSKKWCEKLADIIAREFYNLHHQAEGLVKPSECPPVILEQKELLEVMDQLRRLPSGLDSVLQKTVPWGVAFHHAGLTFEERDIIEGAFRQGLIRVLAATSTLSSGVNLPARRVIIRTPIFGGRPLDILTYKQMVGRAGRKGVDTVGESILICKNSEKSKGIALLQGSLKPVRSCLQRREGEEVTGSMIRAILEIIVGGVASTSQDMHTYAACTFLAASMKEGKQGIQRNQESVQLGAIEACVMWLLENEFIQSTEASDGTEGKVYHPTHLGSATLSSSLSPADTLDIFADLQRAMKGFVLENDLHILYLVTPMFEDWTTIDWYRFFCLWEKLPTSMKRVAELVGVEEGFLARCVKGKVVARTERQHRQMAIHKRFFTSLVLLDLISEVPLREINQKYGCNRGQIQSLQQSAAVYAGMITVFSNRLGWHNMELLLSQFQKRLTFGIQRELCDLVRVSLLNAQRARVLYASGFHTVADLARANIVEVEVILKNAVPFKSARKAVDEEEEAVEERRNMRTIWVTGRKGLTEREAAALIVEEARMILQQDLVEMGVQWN

Take `COc1ccccc1-c1cnc(CC#N)cc1C(=O)Nc1nnc(OCc2ccc(Cl)cc2)s1` [Example 137, N-[5-[(4-chlorophenyl)methoxy]-1,3,4-thiadiazol-2-yl]-2-(cyanomethyl)-5-(2-methoxyphenyl)pyridine-4-carboxamide]: the IC50 is not above 200 nM.

With `O=C(O)c1cc(N2CCOCC2)c(C(=O)Nc2nnc(OCc3ccc(Cl)cc3)s2)cn1` [Example 84, 5-((5-((4-chlorobenzyl)oxy)-1,3,4-thiadiazol-2-yl)carbamoyl)-4-morpholinopicolinic acid], the IC50 is 1000 to 10000 nM.

Turning to `CC1CN(c2ncccc2C(=O)Nc2nnc(OCc3ccc(Cl)cc3)s2)CCO1` (racemic) [Example 7, (R)—N-(5-((4-chlorobenzyl)oxy)-1,3,4-thiadiazol-2-yl)-2-(2-methylmorpholino)nicotinamide and (S)—N-(5-((4-chlorobenzyl)oxy)-1,3,4-thiadiazol-2-yl)-2-(2-methylmorpholino)nicotinamide], the IC50 lay within 200 to 500 nM.

On to `COc1ccccc1-c1ccncc1C(=O)Nc1nnc(OCc2ccc(Br)cc2)s1` [Example 153, N-[5-[(4-bromophenyl)methoxy]-1,3,4-thiadiazol-2-yl]-4-(2-methoxyphenyl)pyridine-3-carboxamide], for which the IC50 was not above 200 nM.

Turning to `O=C(Nc1nnc(OCc2ccc(Cl)cc2)s1)c1cccnc1C1=CCOCC1` [Example 53, N-(5-((4-chlorobenzyl)oxy)-1,3,4-thiadiazol-2-yl)-2-(3,6-dihydro-2H-pyran-4-yl)nicotinamide], the IC50 is 500 to 1000 nM.

With `COc1ccccc1-c1cc(C)ncc1C(=O)Nc1nnc(OCc2ccc(Cl)cc2)s1` [Example 138, N-[5-[(4-chlorophenyl)methoxy]-1,3,4-thiadiazol-2-yl]-4-(2-methoxyphenyl)-6-methylpyridine-3-carboxamide], the IC50 was not above 200 nM.

In the case of `COc1cnccc1-c1cnccc1C(=O)Nc1nnc(OCc2ccc(Cl)cc2)s1` [Example 131, N-(5-((4-chlorobenzyl)oxy)-1,3,4-thiadiazol-2-yl)-3′-methoxy-[3,4′-bipyridine]-4-carboxamide], the IC50 was not above 200 nM.

Consider `NC(=O)c1cc(N2CCOCC2)c(C(=O)Nc2nnc(OCc3ccc(Cl)cc3)s2)cn1` [Example 48, N^5-(5-((4-chlorobenzyl)oxy)-1,3,4-thiadiazol-2-yl)-4-morpholinopyridine-2,5-dicarboxamide], for which the IC50 is 200 to 500 nM.

For `COc1ccccc1-n1cncc1C(=O)Nc1nnc(OCc2ccc(Br)cc2)s1` [Example 86, N-(5-((4-bromobenzyl)oxy)-1,3,4-thiadiazol-2-yl)-1-(2-methoxyphenyl)-1H-imidazole-5-carboxamide], the IC50 was not above 200 nM.

Turning to `COc1ccccc1-c1cc(C)ncc1C(=O)Nc1nnc(OCCc2ccc(Cl)cn2)s1` [Example 197, N-(5-(2-(5-chloropyridin-2-yl)ethoxy)-1,3,4-thiadiazol-2-yl)-4-(2-methoxyphenyl)-6-methylnicotinamide], the IC50 was 200 to 500 nM.

On to `CNC(=O)c1cc(N2CCOCC2)c(C(=O)Nc2nnc(OCc3ccc(Cl)cc3)s2)cn1` [Example 64, N^5-(5-((4-chlorobenzyl)oxy)-1,3,4-thiadiazol-2-yl)-N2-methyl-4-morpholinopyridine-2,5-dicarboxamide], for which the IC50 was in the range of 500 to 1000 nM.

Regarding `O=C(Nc1nnc(OCc2ccc(Cl)cc2)s1)c1cnc(-c2ncc[nH]2)cc1N1CCOCC1` [Example 98, N-(5-((4-chlorobenzyl)oxy)-1,3,4-thiadiazol-2-yl)-6-(1H-imidazol-2-yl)-4-morpholinonicotinamide], the IC50 is 500 to 1000 nM.

`COc1ccccc1-c1cc(CCO)ncc1C(=O)Nc1nnc(OCc2ccc(Cl)cc2)s1` [Example 166, N-(5-((4-chlorobenzyl)oxy)-1,3,4-thiadiazol-2-yl)-6-(2-hydroxyethyl)-4-(2-methoxyphenyl)nicotinamide]: the IC50 is not above 200 nM.

Take `COc1ccc(CO)cc1-c1cc(C)ncc1C(=O)Nc1nnc(OCc2ccc(Cl)cn2)s1` [Example 200, N-(5-((5-chloropyridin-2-yl)methoxy)-1,3,4-thiadiazol-2-yl)-4-(5-(hydroxymethyl)-2-methoxyphenyl)-6-methylnicotinamide]: the IC50 was not above 200 nM.

Regarding `COc1ccccc1-c1cc(C)ncc1C(=O)Nc1nnc(OCc2ccc(Cl)cn2)s1` [Example 113, N-(5-((5-chloropyridin-2-yl)methoxy)-1,3,4-thiadiazol-2-yl)-4-(2-methoxyphenyl)-6-methylnicotinamide], the IC50 is not above 200 nM.

Consider `COc1ccccc1-c1cc2cncn2cc1C(=O)Nc1nnc(OCc2ccc(Cl)cn2)s1` [Example 224, N-[5-[(5-chloropyridin-2-yl)methoxy]-1,3,4-thiadiazol-2-yl]-7-(2-methoxyphenyl)imidazo[1,5-a]pyridine-6-carboxamide], for which the IC50 was not above 200 nM.

Turning to `O=C(Nc1nnc(OCc2ccc(C3CC3)cc2)s1)c1cccnc1N1CCOCC1` [Example 47, N-(5-((4-cyclopropylbenzyl)oxy)-1,3,4-thiadiazol-2-yl)-2-morpholinonicotinamide], the IC50 was 200 to 500 nM.

Consider `O=C(Nc1nnc(OCc2ccc(Cl)nc2)s1)c1cccnc1N1CCOCC1` [Example 8, N-(5-((6-chloropyridin-3-yl)methoxy)-1,3,4-thiadiazol-2-yl)-2-morpholinonicotinamide], for which the IC50 fell in the range of 1000 to 10000 nM.

With `COc1ccccc1-c1cc(C)ncc1C(=O)Nc1nnc(O[C@H](C)c2ccc(Cl)cc2)s1` [Example 201, N-[5-[(1R)-1-(4-chlorophenyl)ethoxy]-1,3,4-thiadiazol-2-yl]-4-(2-methoxyphenyl)-6-methylpyridine-3-carboxamide], the IC50 is 500 to 1000 nM.

Consider `O=C(Nc1nnc(OCc2cnc(Cl)cn2)s1)c1cccnc1N1CCOCC1` [Example 19, N-[5-[(5-chloropyrazin-2-yl)methoxy]-1,3,4-thiadiazol-2-yl]-2-(morpholin-4-yl)pyridine-3-carboxamide], for which the IC50 lay in the range of 1000 to 10000 nM.

Take `COc1ccccc1-c1cncnc1C(=O)Nc1nnc(OCc2ccc(Cl)cn2)s1` [Example 209, N-(5-((5-chloropyridin-2-yl)methoxy)-1,3,4-thiadiazol-2-yl)-5-(2-methoxyphenyl)pyrimidine-4-carboxamide]: the IC50 is not above 200 nM.

(Values after patent publication US12509454B2, “Thiadiazolyl derivatives” (IDEAYA Biosciences, Inc., priority 2019, dated 2025).)
